Biological target: human APJ receptor (Homo sapiens (Human), UniProt P35414)
Experiment: [35S]GTPγS binding assay on membranes from CHO cells stably expressing human APJ receptor
Assay type: biochemical
Conditions: means of several independent experiments, read-out: Activity hAPJ SPA EC50 IP
Outline: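 Membranes from CHO cells stably expressing FLAG-tagged human APJ incubated with [35S]GTPγS in buffer with optimized GDP, MgCl2 and NaCl levels, 90 min at RT. Signal read by imaging; EC50 by non-linear regression from means of several independent experiments.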

human APJ receptor, sequence (P35414 whole entry): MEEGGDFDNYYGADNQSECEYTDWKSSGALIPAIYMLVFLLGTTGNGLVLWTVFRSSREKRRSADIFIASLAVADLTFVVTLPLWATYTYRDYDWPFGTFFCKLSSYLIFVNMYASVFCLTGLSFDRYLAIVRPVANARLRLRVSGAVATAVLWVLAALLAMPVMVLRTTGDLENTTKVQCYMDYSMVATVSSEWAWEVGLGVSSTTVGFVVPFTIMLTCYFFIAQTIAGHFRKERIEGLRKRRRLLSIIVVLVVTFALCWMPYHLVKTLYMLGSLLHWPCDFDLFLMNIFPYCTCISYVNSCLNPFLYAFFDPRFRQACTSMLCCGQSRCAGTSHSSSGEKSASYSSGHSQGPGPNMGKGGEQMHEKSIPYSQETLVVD

Compound	EC50
COc1cccc(OC)c1-n1c(NS(=O)(=O)[C@@H](C)[C@H](OC)c2ncc(C)cn2)nnc1-c1cc(C(F)(F)F)cc(C(F)(F)F)c1 [Example 68.0, (1R,2S)-N-(5-(3,5-bis(trifluoromethyl)phenyl)-4-(2,6-dimethoxyphenyl)-4H-1,2,4-triazol-3-yl)-1-methoxy-1-(5-methyl-2-pyrimidinyl)-2-propanesulfonamide]	4.7 nM
COc1cccc(OC)c1-n1c(NS(=O)(=O)[C@@H](C)[C@H](OC)c2ncc(C)cn2)nnc1-c1ccc(OC(F)(F)F)cc1 [Example 69.0, (1R,2S)-N-(4-(2,6-dimethoxyphenyl)-5-(4-(trifluoromethoxy)phenyl)-4H-1,2,4-triazol-3-yl)-1-methoxy-1-(5-methyl-2-pyrimidinyl)-2-propanesulfonamide]	35 nM
COc1cccc(OC)c1-n1c(NS(=O)(=O)[C@@H](C)[C@H](OC)c2ncc(C)cn2)nnc1-c1ccc(Cl)c(Cl)c1 [Example 70.0, (1R,2S)-N-(5-(3,4-dichlorophenyl)-4-(2,6-dimethoxyphenyl)-4H-1,2,4-triazol-3-yl)-1-methoxy-1-(5-methyl-2-pyrimidinyl)-2-propanesulfonamide]	3.8 nM
COc1cccc(OC)c1-n1c(NS(=O)(=O)[C@@H](C)[C@H](OC)c2ncc(C)cn2)nnc1-c1ccc(Cl)cc1Cl [Example 71.0, (1R,2S)-N-(5-(2,4-dichlorophenyl)-4-(2,6-dimethoxyphenyl)-4H-1,2,4-triazol-3-yl)-1-methoxy-1-(5-methyl-2-pyrimidinyl)-2-propanesulfonamide]	160 nM
COc1cccc(OC)c1-n1c(NS(=O)(=O)[C@@H](C)[C@H](OC)c2ncc(C)cn2)nnc1-c1ccc(F)c(F)c1 [Example 72.0, (1R,2S)-N-(5-(3,4-difluorophenyl)-4-(2,6-dimethoxyphenyl)-4H-1,2,4-triazol-3-yl)-1-methoxy-1-(5-methyl-2-pyrimidinyl)-2-propanesulfonamide]	4.5 nM
COc1cccc(OC)c1-n1c(NS(=O)(=O)[C@@H](C)[C@H](OC)c2ncc(C)cn2)nnc1-c1cccc(S(=O)(=O)N(C)C)c1 [Example 73.0, 3-(4-(2,6-dimethoxyphenyl)-5-((((1S,2R)-2-methoxy-1-methyl-2-(5-methyl-2-pyrimidinyl)ethyl)sulfonyl)amino)-4H-1,2,4-triazol-3-yl)-N,N-dimethylbenzenesulfonamide]	31 nM
COc1cccc(OC)c1-n1c(NS(=O)(=O)[C@@H](C)[C@H](OC)c2ncc(C)cn2)nnc1-c1ccc2nc(N)sc2c1 [Example 74.0, (1R,2S)-N-(5-(2-amino-1,3-benzothiazol-6-yl)-4-(2,6-dimethoxyphenyl)-4H-1,2,4-triazol-3-yl)-1-methoxy-1-(5-methyl-2-pyrimidinyl)-2-propanesulfonamide]	140 nM
COc1ccc(-c2nnc(NS(=O)(=O)[C@@H](C)[C@H](OC)c3ncc(C)cn3)n2-c2c(OC)cccc2OC)cc1C#N [Example 75.0, (1R,2S)-N-(5-(3-cyano-4-methoxyphenyl)-4-(2,6-dimethoxyphenyl)-4H-1,2,4-triazol-3-yl)-1-methoxy-1-(5-methyl-2-pyrimidinyl)-2-propanesulfonamide]	13 nM
COc1cccc(-c2nnc(NS(=O)(=O)[C@@H](C)[C@H](OC)c3ncc(C)cn3)n2-c2c(OC)cccc2OC)c1 [Example 76.0, (1R,2S)-N-(4-(2,6-dimethoxyphenyl)-5-(3-methoxyphenyl)-4H-1,2,4-triazol-3-yl)-1-methoxy-1-(5-methyl-2-pyrimidinyl)-2-propanesulfonamide]	0.51 nM
COc1cccc(OC)c1-n1c(NS(=O)(=O)[C@@H](C)[C@H](OC)c2ncc(C)cn2)nnc1-c1ccccc1 [Example 77.0, (1R,2S)-N-(4-(2,6-dimethoxyphenyl)-5-phenyl-4H-1,2,4-triazol-3-yl)-1-methoxy-1-(5-methyl-2-pyrimidinyl)-2-propanesulfonamide]	1 nM
COc1cccc(OC)c1-n1c(NS(=O)(=O)[C@@H](C)[C@H](OC)c2ncc(C)cn2)nnc1-c1ccc(C)cc1 [Example 78.0, (1R,2S)-N-(4-(2,6-dimethoxyphenyl)-5-(4-methylphenyl)-4H-1,2,4-triazol-3-yl)-1-methoxy-1-(5-methyl-2-pyrimidinyl)-2-propanesulfonamide]	2.4 nM
COc1ccc(OC)c(-c2nnc(NS(=O)(=O)[C@@H](C)[C@H](OC)c3ncc(C)cn3)n2-c2c(OC)cccc2OC)c1 [Example 79.0, (1R,2S)-N-(5-(2,5-dimethoxyphenyl)-4-(2,6-dimethoxyphenyl)-4H-1,2,4-triazol-3-yl)-1-methoxy-1-(5-methyl-2-pyrimidinyl)-2-propanesulfonamide]	3.8 nM
COc1cccc(OC)c1-n1c(NS(=O)(=O)[C@@H](C)[C@H](OC)c2ncc(C)cn2)nnc1-c1ccc2c(c1)CCO2 [Example 80.0, (1R,2S)-N-(5-(2,3-dihydro-1-benzofuran-5-yl)-4-(2,6-dimethoxyphenyl)-4H-1,2,4-triazol-3-yl)-1-methoxy-1-(5-methyl-2-pyrimidinyl)-2-propanesulfonamide]	3.5 nM
COc1cccc(OC)c1-n1c(NS(=O)(=O)[C@@H](C)[C@H](OC)c2ncc(C)cn2)nnc1-c1cccc(Br)c1 [Example 81.0, (1R,2S)-N-(5-(3-bromophenyl)-4-(2,6-dimethoxyphenyl)-4H-1,2,4-triazol-3-yl)-1-methoxy-1-(5-methyl-2-pyrimidinyl)-2-propanesulfonamide]	0.27 nM
COc1cccc(OC)c1-n1c(NS(=O)(=O)[C@@H](C)[C@H](OC)c2ncc(C)cn2)nnc1-c1ccc(Oc2ccccc2)cc1 [Example 82.0, (1R,2S)-N-(4-(2,6-dimethoxyphenyl)-5-(4-phenoxyphenyl)-4H-1,2,4-triazol-3-yl)-1-methoxy-1-(5-methyl-2-pyrimidinyl)-2-propanesulfonamide]	> 4200 nM
CCN(CC)c1ccc(-c2nnc(NS(=O)(=O)[C@@H](C)[C@H](OC)c3ncc(C)cn3)n2-c2c(OC)cccc2OC)cc1 [Example 83.0, (1R,2S)-N-(5-(4-(diethylamino)phenyl)-4-(2,6-dimethoxyphenyl)-4H-1,2,4-triazol-3-yl)-1-methoxy-1-(5-methyl-2-pyrimidinyl)-2-propanesulfonamide]	89 nM
COc1cccc(OC)c1-n1c(NS(=O)(=O)[C@@H](C)[C@H](OC)c2ncc(C)cn2)nnc1-c1ccc2nccnc2c1 [Example 84.0, (1R,2S)-N-(4-(2,6-dimethoxyphenyl)-5-(6-quinoxalinyl)-4H-1,2,4-triazol-3-yl)-1-methoxy-1-(5-methyl-2-pyrimidinyl)-2-propanesulfonamide]	55 nM
COc1cccc(OC)c1-n1c(NS(=O)(=O)[C@@H](C)[C@H](OC)c2ncc(C)cn2)nnc1-c1cccc(F)c1 [Example 85.0, (1R,2S)—N-(4-(2,6-Dimethoxyphenyl)-5-(3-fluorophenyl)-4H-1,2,4-triazol-3-yl)-1-methoxy-1-(5-methyl-2-pyrimidinyl)-2-propanesulfonamide]	0.92 nM
COc1cccc(OC)c1-n1c(NS(=O)(=O)[C@@H](C)[C@H](OC)c2ncc(C)cn2)nnc1-c1cccc(C#N)c1 [Example 86.0, (1R,2S)-N-(5-(3-cyanophenyl)-4-(2,6-dimethoxyphenyl)-4H-1,2,4-triazol-3-yl)-1-methoxy-1-(5-methyl-2-pyrimidinyl)-2-propanesulfonamide]	10.6 nM

Source: patent publication US10906890B2, “Triazole phenyl compounds as agonists of the APJ receptor” (AMGEN INC., priority 2016, dated 2021)
